Measurements reported in the NIST ThermoML archive (doi:10.1016/j.tca.2015.06.017).

Assay: xn = mol fraction of the nth substance listed
Conditions: Liquid, Vibrating tube method

CCCCCl [1-chlorobutane] + CCCCCCC
mass density [kg/m3]
Conditions	283.15 K	293.15 K	298.15 K
100 kPa, x2 = 0.0508	882.75	871.93	866.47
100 kPa, x2 = 0.0994	869.33	858.68	853.29
100 kPa, x2 = 0.2013	842.84	832.5	827.27
100 kPa, x2 = 0.3015	818.82	808.71	803.67
100 kPa, x2 = 0.4008	796.7	786.9	781.96
100 kPa, x2 = 0.5026	775.72	766.2	761.38
100 kPa, x2 = 0.6012	756.89	747.61	742.88
100 kPa, x2 = 0.7003	739.21	730.17	725.57
100 kPa, x2 = 0.7995	722.69	713.87	709.43
100 kPa, x2 = 0.9011	706.94	698.34	694
100 kPa, x2 = 0.9494	699.8	691.32	687.02
2000 kPa, x2 = 0.0508	884.62	873.92	868.56
2000 kPa, x2 = 0.0994	871.23	860.68	855.4
2000 kPa, x2 = 0.2013	844.73	834.49	829.39
2000 kPa, x2 = 0.3015	820.72	810.76	805.75
2000 kPa, x2 = 0.4008	798.63	788.97	784.08
2000 kPa, x2 = 0.5026	777.65	768.2	763.54
2000 kPa, x2 = 0.6012	758.81	749.57	745
2000 kPa, x2 = 0.7003	741.14	732.18	727.68
2000 kPa, x2 = 0.7995	724.62	715.87	711.52
2000 kPa, x2 = 0.9011	708.86	700.31	696.1
2000 kPa, x2 = 0.9494	701.72	693.28	689.1
5000 kPa, x2 = 0.0508	887.46	876.95	871.65
5000 kPa, x2 = 0.0994	874.03	863.68	858.46
5000 kPa, x2 = 0.2013	847.53	837.52	832.44
5000 kPa, x2 = 0.3015	823.49	813.71	808.8
5000 kPa, x2 = 0.4008	801.35	791.93	787.1
5000 kPa, x2 = 0.5026	780.38	771.16	766.44
5000 kPa, x2 = 0.6012	761.44	752.54	747.93
5000 kPa, x2 = 0.7003	743.76	735.08	730.59
5000 kPa, x2 = 0.7995	727.26	718.74	714.37
5000 kPa, x2 = 0.9011	711.45	703.17	698.9
5000 kPa, x2 = 0.9494	704.3	696.13	691.9
7000 kPa, x2 = 0.0508	889.28	878.92	873.68
7000 kPa, x2 = 0.0994	875.85	865.65	860.48
7000 kPa, x2 = 0.2013	849.37	839.47	834.46
7000 kPa, x2 = 0.3015	825.31	815.63	810.76
7000 kPa, x2 = 0.4008	803.16	793.83	789.09
7000 kPa, x2 = 0.5026	782.19	773.03	768.42
7000 kPa, x2 = 0.6012	763.28	754.35	749.89
7000 kPa, x2 = 0.7003	745.54	736.9	732.52
7000 kPa, x2 = 0.7995	729.04	720.57	716.31
7000 kPa, x2 = 0.9011	713.2	704.95	700.8
7000 kPa, x2 = 0.9494	706.05	697.9	693.79
10000 kPa, x2 = 0.0508	891.99	881.85	876.62
10000 kPa, x2 = 0.0994	878.55	868.56	863.41
10000 kPa, x2 = 0.2013	852.02	842.33	837.33
10000 kPa, x2 = 0.3015	827.93	818.52	813.6
10000 kPa, x2 = 0.4008	805.75	796.66	791.87
10000 kPa, x2 = 0.5026	784.72	775.83	771.16
10000 kPa, x2 = 0.6012	765.77	757.17	752.57
10000 kPa, x2 = 0.7003	748.04	739.62	735.16
10000 kPa, x2 = 0.7995	731.51	723.28	718.95
10000 kPa, x2 = 0.9011	715.65	707.66	703.38
10000 kPa, x2 = 0.9494	708.47	700.58	696.37
20000 kPa, x2 = 0.0508	900.53	890.77	885.92
20000 kPa, x2 = 0.0994	887.08	877.47	872.69
20000 kPa, x2 = 0.2013	860.48	851.18	846.51
20000 kPa, x2 = 0.3015	836.34	827.25	822.71
20000 kPa, x2 = 0.4008	814.1	805.35	800.83
20000 kPa, x2 = 0.5026	793.03	784.43	780.1
20000 kPa, x2 = 0.6012	773.97	765.68	761.37
20000 kPa, x2 = 0.7003	756.2	748.06	743.91
20000 kPa, x2 = 0.7995	739.54	731.66	727.56
20000 kPa, x2 = 0.9011	723.61	715.92	711.9
20000 kPa, x2 = 0.9494	716.4	708.79	704.84
30000 kPa, x2 = 0.0508	908.4	899	894.38
30000 kPa, x2 = 0.0994	894.89	885.66	881.09
30000 kPa, x2 = 0.2013	868.22	859.31	854.8
30000 kPa, x2 = 0.3015	843.95	835.33	830.93
30000 kPa, x2 = 0.4008	821.67	813.25	808.96
30000 kPa, x2 = 0.5026	800.5	792.34	788.14
30000 kPa, x2 = 0.6012	781.4	773.46	769.31
30000 kPa, x2 = 0.7003	763.51	755.75	751.75
30000 kPa, x2 = 0.7995	746.78	739.24	735.28
30000 kPa, x2 = 0.9011	730.75	723.44	719.55
30000 kPa, x2 = 0.9494	723.48	716.27	712.41
40000 kPa, x2 = 0.0508	915.72	906.7	902.26
40000 kPa, x2 = 0.0994	902.19	893.3	888.92
40000 kPa, x2 = 0.2013	875.41	866.83	862.54
40000 kPa, x2 = 0.3015	851.07	842.76	838.54
40000 kPa, x2 = 0.4008	828.73	820.58	816.49
40000 kPa, x2 = 0.5026	807.4	799.52	795.57
40000 kPa, x2 = 0.6012	788.26	780.6	776.69
40000 kPa, x2 = 0.7003	770.26	762.81	759
40000 kPa, x2 = 0.7995	753.48	746.17	742.45
40000 kPa, x2 = 0.9011	737.36	730.25	726.58
40000 kPa, x2 = 0.9494	730.05	723.03	719.41
50000 kPa, x2 = 0.0508	922.47	913.76	909.49
50000 kPa, x2 = 0.0994	908.9	900.34	896.12
50000 kPa, x2 = 0.2013	882.07	873.81	869.69
50000 kPa, x2 = 0.3015	857.66	849.63	845.59
50000 kPa, x2 = 0.4008	835.21	827.43	823.5
50000 kPa, x2 = 0.5026	813.85	806.3	802.4
50000 kPa, x2 = 0.6012	794.6	787.26	783.45
50000 kPa, x2 = 0.7003	776.55	769.39	765.7
50000 kPa, x2 = 0.7995	759.63	752.7	749.08
50000 kPa, x2 = 0.9011	743.44	736.68	733.13
50000 kPa, x2 = 0.9494	736.1	729.41	725.89
60000 kPa, x2 = 0.0508	928.92	920.42	916.33
60000 kPa, x2 = 0.0994	915.32	906.99	902.96
60000 kPa, x2 = 0.2013	888.42	880.39	876.46
60000 kPa, x2 = 0.3015	863.89	856.15	852.33
60000 kPa, x2 = 0.4008	841.39	833.88	830.1
60000 kPa, x2 = 0.5026	819.91	812.63	809.01
60000 kPa, x2 = 0.6012	800.58	793.52	790
60000 kPa, x2 = 0.7003	782.47	775.64	772.14
60000 kPa, x2 = 0.7995	765.51	758.87	755.42
60000 kPa, x2 = 0.9011	749.23	742.77	739.4
60000 kPa, x2 = 0.9494	741.85	735.46	732.12
65000 kPa, x2 = 0.0508	931.98	923.76	919.61
65000 kPa, x2 = 0.0994	918.36	910.28	906.21
65000 kPa, x2 = 0.2013	891.39	883.59	879.69
65000 kPa, x2 = 0.3015	866.87	859.28	855.51
65000 kPa, x2 = 0.4008	844.29	836.95	833.25
65000 kPa, x2 = 0.5026	822.81	815.67	812.1
65000 kPa, x2 = 0.6012	803.45	796.5	793.04
65000 kPa, x2 = 0.7003	785.25	778.5	775.16
65000 kPa, x2 = 0.7995	768.28	761.67	758.43
65000 kPa, x2 = 0.9011	751.95	745.52	742.37
65000 kPa, x2 = 0.9494	744.53	738.19	735.07
